Measurements published in patent US20090068290A1, “BIFEPRUNOX DOSES FOR TREATING SCHIZOPHRENIA” (priority 2006, published 2009).

Columns and labels:
[1] = system: adult subjects with schizophrenia; experiment: PANSS responder rate, Clinical Study Two; format: in vivo, human; conditions: for PANSS 20% responder rate / PANSS 30% responder rate: Endpoint LOCF; for PANSS Responder at Endpoint, 30% Definition Responder, No / PANSS Responder at Endpoint, 30% Definition Responder, Yes / PANSS Responder at Week 6/Endpoint, 20% Definition, No / PANSS Responder at Week 6/Endpoint, 20% Definition, Yes: LOCF, ITT
Procedure: Notable differences were also observed between the 30 mg bifeprunox group and placebo for the change from baseline to endpoint in PANSS general psychopathology subscale score, BPRS total score, BPRS psychosis cluster score, PANSS responder rate, and CGI-I responder rate. […] A CGI-I responder refers to a subject who was categorized as “very much improved” or “much improved” in the CGI Global Improvement scale at endpoint. […]
Subjects who completed this study had the option to continue in the long-term. […] Risperidone-treated subjects were titrated from 2 mg to 6 mg daily over a three-day period and were subsequently maintained at 6 mg/day for the remainder of the treatment period. […] Blood samples were also obtained at Screening/Baseline, Week 3, and Week 6 for clinical laboratory assessments. […]

[2] = system: adult subjects with schizophrenia; experiment: BPRS total score, Clinical Study One; format: in vivo, human; conditions: ITT population
Procedure: There were five treatment groups in this study. […] Study medication was administered once daily. After Baseline measurements were performed, the titration phase was begun. Bifeprunox treated subjects were titrated up to 5 mg, 10 mg or 20 mg according to a standardized titration schedule (Day 1: 0.125 mg, Day 2: 0.25 mg, Day 3: 0.5 mg, Day 4: 1.0 mg, Day 5: 2.0 mg, Day 6: 5.0 mg, Day 7: 10.0 mg, Day 8: 20 mg). When the assigned dose was reached, subjects were maintained at that dose for the remainder of the six-week treatment period.
The change in the Positive and Negative Symptom Scale (PANSS) total score, from baseline to endpoint, was the primary outcome measure. Secondary efficacy measures included: PANSS positive, PANSS negative, PANSS general psychopathology (GPP) score, PANSS-derived Brief Psychiatric Rating Scale (BPRS) score, Clinical Global Impressions-Severity of Illness (CGI-S), CGI-Improvement (CGI-I) scores, and responder rates. Safety and tolerability evaluations included extrapyramidal symptoms (EPS), weight gain, lipid profile, and serum prolactin.

[3] = system: adult subjects with schizophrenia; experiment: Adverse events (TEAE, SAE, special interest, discontinuation, EPS-related TEAE), Clinical Study Three; conditions: for safety and tolerability: bifeprunox 20 mg and 30 mg, 6 weeks
Procedure: There were four treatment arms in this study, approximately 144 subjects per arm. […] After completing the Single-Blind Placebo Lead-in Period of at least three days, bifeprunox-treated subjects were titrated from 0.25 mg up to 20 mg/day or 30 mg/day according to a standardized titration scheme over a seven- or eight-day period, respectively. When the assigned dose was reached, subjects were maintained at that dose for the remainder of the six week treatment period. […] Subjects were hospitalized (if not already inpatients) after eligibility for study entry was verified, starting from the Screening Visit until at least 10 days after Baseline. Subjects could be hospitalized longer than 10 days if considered medically necessary by the Investigator. Rating scale assessments for efficacy and abnormal movement disorders were done weekly except for Week 5. Safety assessments were performed at Screening, during treatment and at the end of the study. Subject satisfaction with study medication was assessed at Week 6. Samples of whole blood were obtained at Weeks 2, 4, and 6 for determination of bifeprunox in plasma.
EPS were assessed using treatment-emergent adverse events such as akathisia, dyskinesia, parkinsoniam, etc. and/or formal rating scales such as SAS, BAS, and/or AIMS.

[4] = Body weight, Clinical Study Three
Description: To assess the safety and tolerability of bifeprunox using physical examination, weight, waist circumference, vital signs (pulse rate and systolic/diastolic blood pressure [BP], and oral temperature), 12-lead electrocardiogram (ECG), clinical laboratory assessments (hematology, biochemistry including fasting insulin level, fasting glucose, fasting lipid profile, urinalysis, special laboratory assessments for prolactin, IGF-1, IGFBP-3, and thyroid function), need for anticholinergic treatment during double-blind treatment period, concomitant medication use, adverse event (AE) monitoring, and assessments of abnormal movement including the Simpson-Angus Scale (SAS), Barnes Akathisia Scale (BAS), and Abnormal Involuntary Movement Scale (AIMS).

[5] = Bifeprunox 10 mg, Endpoint LOCF
[6] = Bifeprunox 20 mg, Endpoint LOCF

## O=c1[nH]c2cccc(N3CCN(Cc4cccc(-c5ccccc5)c4)CC3)c2o1 [Bifeprunox, 7-[4-([1,1′-biphenyl]-3-ylmethyl)-1-piperazinyl]-2(3H)-benzoxazolone]
[1]; bifeprunox 30 mg
  PANSS 20% responder rate: 36%
  PANSS 30% responder rate: 24%
  PANSS Responder at Endpoint, 30% Definition Responder, No: 106 (76%) n (%)
  PANSS Responder at Endpoint, 30% Definition Responder, Yes: 34 (24%) n (%)
  PANSS Responder at Week 6/Endpoint, 20% Definition, No: 89 (64%) n (%)
  PANSS Responder at Week 6/Endpoint, 20% Definition, Yes: 51 (36%) n (%)
[1]; bifeprunox 40 mg
  PANSS 20% responder rate: 30%
  PANSS 30% responder rate: 22%
  PANSS Responder at Endpoint, 30% Definition Responder, No: 110 (78%) n (%)
  PANSS Responder at Endpoint, 30% Definition Responder, Yes: 31 (22%) n (%)
  PANSS Responder at Week 6/Endpoint, 20% Definition, No: 99 (70%) n (%)
  PANSS Responder at Week 6/Endpoint, 20% Definition, Yes: 42 (30%) n (%)
[2]; Bifeprunox 5 mg, Endpoint LOCF
  Change from Baseline in BPRS Total Score, Mean (S.D.): −6.2 (10.5)
  Change from Baseline in BPRS Total Score, Median: −5
  Change from Baseline in BPRS Total Score, Trt Effect (bifeprunox—placebo): −2.4
[2]; Bifeprunox 5 mg, Week 1, LOCF
  Change from Baseline in BPRS Total Score, Mean (S.D.): −2.4 (7.5)
  Change from Baseline in BPRS Total Score, Median: −3
[2]; Bifeprunox 5 mg, Week 2, LOCF
  Change from Baseline in BPRS Total Score, Mean (S.D.): −4.2 (8.6)
  Change from Baseline in BPRS Total Score, Median: −4
[2]; Bifeprunox 5 mg, Week 3, LOCF
  Change from Baseline in BPRS Total Score, Mean (S.D.): −5.2 (9.7)
  Change from Baseline in BPRS Total Score, Median: −5
[2]; Bifeprunox 5 mg, Week 4, LOCF
  Change from Baseline in BPRS Total Score, Mean (S.D.): −5.6 (10.2)
  Change from Baseline in BPRS Total Score, Median: −5
[2]; [5]
  Change from Baseline in BPRS Total Score, Mean (S.D.): −3.4 (11.5)
  Change from Baseline in BPRS Total Score, Median: −2
  Change from Baseline in BPRS Total Score, Trt Effect (bifeprunox—placebo): −0.6
[2]; Bifeprunox 10 mg, Week 1, LOCF
  Change from Baseline in BPRS Total Score, Mean (S.D.): −2.0 (7.2)
  Change from Baseline in BPRS Total Score, Median: −1
[2]; Bifeprunox 10 mg, Week 2, LOCF
  Change from Baseline in BPRS Total Score, Mean (S.D.): −3.1 (9.3)
  Change from Baseline in BPRS Total Score, Median: −3
[2]; Bifeprunox 10 mg, Week 3, LOCF
  Change from Baseline in BPRS Total Score, Mean (S.D.): −3.3 (10.9)
  Change from Baseline in BPRS Total Score, Median: −2
[2]; Bifeprunox 10 mg, Week 4, LOCF
  Change from Baseline in BPRS Total Score, Mean (S.D.): −3.1 (10.7)
  Change from Baseline in BPRS Total Score, Median: −3
[2]; [6]
  Change from Baseline in BPRS Total Score, Mean (S.D.): −7.6 (10.1)
  Change from Baseline in BPRS Total Score, Median: −8
  Change from Baseline in BPRS Total Score, Trt Effect (bifeprunox—placebo): −3.5
[2]; Bifeprunox 20 mg, Week 1, LOCF
  Change from Baseline in BPRS Total Score, Mean (S.D.): −4.3 (7.3)
  Change from Baseline in BPRS Total Score, Median: −3
[2]; Bifeprunox 20 mg, Week 2, LOCF
  Change from Baseline in BPRS Total Score, Mean (S.D.): −6.1 (8.8)
  Change from Baseline in BPRS Total Score, Median: −7
[2]; Bifeprunox 20 mg, Week 3, LOCF
  Change from Baseline in BPRS Total Score, Mean (S.D.): −7.5 (9.1)
  Change from Baseline in BPRS Total Score, Median: −8
[2]; Bifeprunox 20 mg, Week 4, LOCF
  Change from Baseline in BPRS Total Score, Mean (S.D.): −7.7 (9.7)
  Change from Baseline in BPRS Total Score, Median: −8
[3]; BX 20 mg
  AKATHISIA, %: 3%
  CONVULSION, %: 1%
  DIZZINESS, %: 8%
  DYSKINESIA, %: 1%
  EXTRAPYRAMIDAL DISORDER, %: 3%
  HEADACHE, %: 19%
  LOSS OF CONSCIOUSNESS, %: 1 (<1%)
  MYALGIA, %: 1 (<1%)
  NECK PAIN, %: 1%
  NERVOUS SYSTEM DISORDERS, %: 38%
  PAIN IN EXTREMITY, %: 1 (<1%)
  SEDATION, %: 5%
  SINUS HEADACHE, %: 1 (<1%)
  SOMNOLENCE, %: 3%
  TARDIVE DYSKINESIA, %: 1 (<1%)
  TREMOR, %: 1%
[3]; BX 40 mg
  AKATHISIA, %: 3%
  CYST, %: 1 (<1%)
  DIZZINESS, %: 10%
  DYSKINESIA, %: 1%
  EXTRAPYRAMIDAL DISORDER, %: 1 (<1%)
  HEADACHE, %: 19%
  MUSCULOSKELETAL STIFFNESS, %: 1 (<1%)
  MYALGIA, %: 1%
  NEOPLASMS BENIGN, MALIGNANT AND UNSPECIFIED (INCL CYSTS AND POLYPS), %: 1 (<1%)
  NERVOUS SYSTEM DISORDERS, %: 37%
  NEUROLOGICAL SYMPTOM, %: 1 (<1%)
  PAIN IN JAW, %: 1 (<1%)
  PARAESTHESIA, %: < 1%
  SEDATION, %: 7%
  SOMNOLENCE, %: 3%
  SYNCOPE VASOVAGAL, %: 1%
  TREMOR, %: 3%
[3]; Bifeprunox 30 mg
  incidence of dizziness (TEAE of special interest): 10%
  orthostatic hypotension (special interest TEAE): three subjects
  subjects with at least one AE that led to study termination: 7%
  subjects with at least one SAE: 8%
  subjects with at least one TEAE: 77%
  subjects with at least one special interest TEAE: 13%
  syncope vasovagal (special interest TEAE): two subjects
[3]; bifeprunox 20 mg
  incidence of dizziness (TEAE of special interest): 8%
  subjects with at least one AE that led to study termination: 8%
  subjects with at least one SAE: 10%
  subjects with at least one TEAE: 82%
  subjects with at least one special interest TEAE: 11%
[3]
  safety and tolerability: well tolerated at both dose levels
[3]; listed as bifeprunox
  safety and tolerability: safe and well tolerated
[3]; bifeprunox groups (20, 30 mg), each
  subjects who discontinued study medication due to an AE: 8%
[4]; Bifeprunox 30 mg
  Weight, Baseline Mean of subjects with Endpoint change: 179.7 lbs
  Weight, Baseline Mean of subjects with Week 6 change: 172.6 lbs
  Weight, Baseline, Max: 358 lbs
  Weight, Baseline, Mean (SD): 179.1 (62.4) lbs
  Weight, Baseline, Median: 171 lbs
  Weight, Baseline, Min: 77 lbs
  Weight, Change from Baseline at Endpoint, Max: 39 lbs
  Weight, Change from Baseline at Endpoint, Mean (SD): −1.1 (7.4) lbs
  Weight, Change from Baseline at Endpoint, Median: 0 lbs
  Weight, Change from Baseline at Endpoint, Min: −22 lbs
  Weight, Change from Baseline at Week 6, Max: 39 lbs
  Weight, Change from Baseline at Week 6, Mean (SD): −1.0 (8.9) lbs
  Weight, Change from Baseline at Week 6, Median: −2 lbs
  Weight, Change from Baseline at Week 6, Min: −18 lbs
  incidence of markedly abnormal (≧7%) decrease in body weight: 5%
  incidence of markedly abnormal (≧7%) increase in body weight: 5%
  mean weight change at Endpoint: −1.1 lbs
[4]; bifeprunox 20 mg
  Weight, Baseline Mean of subjects with Endpoint change: 178.8 lbs
  Weight, Baseline Mean of subjects with Week 6 change: 171.9 lbs
  Weight, Baseline, Max: 393 lbs
  Weight, Baseline, Mean (SD): 180.6 (61.7) lbs
  Weight, Baseline, Median: 176 lbs
  Weight, Baseline, Min: 77 lbs
  Weight, Change from Baseline at Endpoint, Max: 26 lbs
  Weight, Change from Baseline at Endpoint, Mean (SD): −2.3 (7.3) lbs
  Weight, Change from Baseline at Endpoint, Median: −1 lbs
  Weight, Change from Baseline at Endpoint, Min: −34 lbs
  Weight, Change from Baseline at Week 6, Max: 26 lbs
  Weight, Change from Baseline at Week 6, Mean (SD): −3.3 (8.2) lbs
  Weight, Change from Baseline at Week 6, Median: −1 lbs
  Weight, Change from Baseline at Week 6, Min: −34 lbs
  incidence of markedly abnormal (≧7%) decrease in body weight: 6%
  incidence of markedly abnormal (≧7%) increase in body weight: 1%
  mean weight change at Endpoint: −2.3 lbs
[4]; bifeprunox 20, 30 mg, 6 weeks
  mean body weight (in words): Small decreases in mean body weight
